Experimental data reported in paper PMC3779694 (Hepatology (Baltimore, Md.), 2011).

How the values were obtained:
[1] = system: hepatitis C subjects; conditions: human, in vivo; cited from earlier work
[2] = system: adults with NASH; experiment: Serum AST, phase 2 placebo-controlled trial of GS-9450 for 4 weeks; format: in vivo, human; conditions: for AST, %Change at Week 4 / AST, Change at Week 2 / AST, Change at Week 4: mean (SD)
[3] = system: adults with NASH; experiment: Serum caspase-3-cleaved CK-18 fragments; format: in vivo, human; conditions: mean (SD)
[4] = system: adults with NASH; experiment: Treatment-emergent grade 3 or 4 laboratory abnormalities, phase 2 trial
[5] = system: adults with NASH; experiment: Serum ALT, phase 2 placebo-controlled trial of GS-9450 for 4 weeks; format: in vivo, human; conditions: for ALT, %Change at Week 4 / ALT, Change at Week 2 / ALT, Change at Week 4: mean (SD); for Observed change from baseline to week 4 in ALT, Difference T − R / Percent change from baseline to week 4 in ALT, Difference T − R / Observed change from baseline to week 4 in ALT, Least Squares Means GS-9450 (T) / Percent change from baseline to week 4 in ALT, Least Squares Means GS-9450 (T): ANCOVA model
[6] = system: adults with NASH; experiment: Exploratory pharmacokinetic/pharmacodynamic modeling; format: in vivo, human; conditions: mean exposure with 40 mg; inhibitory Emax model
[7] = system: patients with chronic hepatitis C virus (HCV) infection; conditions: short-term treatment; cited from earlier work
[8] = system: adults with NASH; experiment: Adverse events, phase 2 trial; format: in vivo, human
[9] = range across the GS-9450 treatment groups
[10] = 1 mg (n = 26), during treatment

Compound: CC(C)[C@@]1(C(=O)N[C@H]2CC(=O)O[C@]2(O)CF)CC(c2nccc3ccccc23)=NO1 [GS-9450]
- drug-induced liver injury [1]: episodes of drug-induced liver injury attributable to GS-9450 occurred
- AST, %Change at Week 4 ([2]; 1 mg once daily): −2 (41) %
- AST, Change at Week 2 ([2]; 1 mg once daily): −4 (36) U/L
- AST, Change at Week 4 ([2]; 1 mg once daily): −8 (35) U/L
- AST, %Change at Week 4 ([2]; 5 mg once daily): −6 (38) %
- AST, Change at Week 2 ([2]; 5 mg once daily): −12 (16) U/L
- AST, Change at Week 4 ([2]; 5 mg once daily): −5 (24) U/L
- AST, %Change at Week 4 ([2]; 10 mg once daily): −16 (29) %
- AST, Change at Week 2 ([2]; 10 mg once daily): −22 (34) U/L
- AST, Change at Week 4 ([2]; 10 mg once daily): −12 (36) U/L
- mean AST decrease from baseline to week 4 ([2]; 40 mg): 13 U/L
- proportion of subjects with normal AST, peak at day 3 ([2]; 40 mg): 77%
- AST, %Change at Week 4 ([2]; 40 mg once daily): −20 (26) %
- AST, Change at Week 2 ([2]; 40 mg once daily): −16 (20) U/L
- AST, Change at Week 4 ([2]; 40 mg once daily): −13 (20) U/L
- proportion of subjects with normal AST at week 4 ([2]; 40 mg, 20% at baseline, normal 36 U/L males, 34 U/L females): 48%
- mean AST within 1 week of stopping study medication ([2]; all GS-9450 treatment groups): modestly above baseline levels
- AST mean (SD) changes by treatment week 4 [2, 9]: −5 (24) to −13 (20) U/L
- AST mean changes from baseline over the first week of treatment [2, 9]: −9 (23) to −27 (29) U/L
- CK-18 fragments, %Change at Week 4 ([3]; 1 mg once daily): 23 (81) %
- CK-18 fragments, Change at Week 2 ([3]; 1 mg once daily): 164 (384) U/L
- CK-18 fragments, Change at Week 4 ([3]; 1 mg once daily): 192 (584) U/L
- CK-18 fragments, %Change at Week 4 ([3]; 5 mg once daily): 25 (120) %
- CK-18 fragments, Change at Week 2 ([3]; 5 mg once daily): −116 (608) U/L
- CK-18 fragments, Change at Week 4 ([3]; 5 mg once daily): 96 (641) U/L
- CK-18 fragments, %Change at Week 4 ([3]; 10 mg once daily): −26 (38) %
- CK-18 fragments, Change at Week 2 ([3]; 10 mg once daily): −460 (866) U/L
- CK-18 fragments, Change at Week 4 ([3]; 10 mg once daily): −393 (723) U/L
- mean CK-18 fragment levels had decreased to, by week 4 ([3]; 10 mg): 393 (723) U/L
- CK-18 fragments, %Change at Week 4 ([3]; 40 mg once daily): −19 (32) %
- CK-18 fragments, Change at Week 2 ([3]; 40 mg once daily): −140 (490) U/L
- CK-18 fragments, Change at Week 4 ([3]; 40 mg once daily): −125 (212) U/L
- mean CK-18 fragment levels had decreased to, by week 4 ([3]; 40 mg): 125 (212) U/L
- treatment-emergent grade 3 elevated ALT, subjects ([4]; 1 mg, on-treatment): one subject
- treatment-emergent grade 3 elevated AST, subjects ([4]; 5 mg): one subject
- treatment-emergent grade 3 or 4 elevated serum lipase, subjects ([4]; 5 mg): one subject
- treatment-emergent grade 3 or 4 ALT elevations during dosing ([4]; 5, 10, or 40 mg daily, 75 patients): No treatment-emergent grade 3 or 4 ALT elevations
- ALT, %Change at Week 4 ([5]; 1 mg once daily): −8 (41) %
- ALT, Change at Week 2 ([5]; 1 mg once daily): −17 (31) U/L
- ALT, Change at Week 4 ([5]; 1 mg once daily): −14 (40) U/L
- Observed change from baseline to week 4 in ALT, Difference T − R ([5]; 1 mg vs. pooled placebo): −11 U/L
- Percent change from baseline to week 4 in ALT, Difference T − R ([5]; 1 mg vs. pooled placebo): −6%
- Observed change from baseline to week 4 in ALT, Least Squares Means GS-9450 (T) ([5]; 1 mg): −15 U/L
- Percent change from baseline to week 4 in ALT, Least Squares Means GS-9450 (T) ([5]; 1 mg): −8%
- ALT, %Change at Week 4 ([5]; 5 mg once daily): −28 (21) %
- ALT, Change at Week 2 ([5]; 5 mg once daily): −35 (18) U/L
- ALT, Change at Week 4 ([5]; 5 mg once daily): −30 (26) U/L
- Observed change from baseline to week 4 in ALT, Difference T − R ([5]; 5 mg vs. pooled placebo): −25 U/L
- Percent change from baseline to week 4 in ALT, Difference T − R ([5]; 5 mg vs. pooled placebo): −26%
- Observed change from baseline to week 4 in ALT, Least Squares Means GS-9450 (T) ([5]; 5 mg): −29 U/L
- Percent change from baseline to week 4 in ALT, Least Squares Means GS-9450 (T) ([5]; 5 mg): −28%
- ALT, %Change at Week 4 ([5]; 10 mg once daily): −30 (20) %
- ALT, Change at Week 2 ([5]; 10 mg once daily): −37 (23) U/L
- ALT, Change at Week 4 ([5]; 10 mg once daily): −30 (26) U/L
- Observed change from baseline to week 4 in ALT, Difference T − R ([5]; 10 mg vs. pooled placebo): −28 U/L
- Percent change from baseline to week 4 in ALT, Difference T − R ([5]; 10 mg vs. pooled placebo): −28%
- Observed change from baseline to week 4 in ALT, Least Squares Means GS-9450 (T) ([5]; 10 mg): −32 U/L
- Percent change from baseline to week 4 in ALT, Least Squares Means GS-9450 (T) ([5]; 10 mg): −31%
- mean (SD) ALT decrease from baseline to week 4 ([5]; 40 mg): 47 (43) U/L
- ALT, %Change at Week 4 ([5]; 40 mg once daily): −43 (19) %
- ALT, Change at Week 2 ([5]; 40 mg once daily): −46 (46) U/L
- ALT, Change at Week 4 ([5]; 40 mg once daily): −47 (43) U/L
- Observed change from baseline to week 4 in ALT, Difference T − R ([5]; 40 mg vs. pooled placebo): −39 U/L
- Percent change from baseline to week 4 in ALT, Difference T − R ([5]; 40 mg vs. pooled placebo): −40%
- mean ALT change from baseline at follow-up week 2 ([5]; 40 mg, off treatment): 16 IU/L
- mean ALT change from baseline at follow-up week 3 ([5]; 40 mg, off treatment): 13 IU/L
- mean ALT change from baseline at follow-up week 4 ([5]; 40 mg, off treatment): 12 IU/L
- proportion of subjects with normal ALT at week 4 ([5]; 40 mg, 0% at baseline, normal 43 U/L males, 34 U/L females): 35%
- mean absolute ALT value at week 4 ([5]; 40 mg, 106 U/L at baseline): 62 U/L
- Observed change from baseline to week 4 in ALT, Least Squares Means GS-9450 (T) ([5]; 40 mg): −43 U/L
- Percent change from baseline to week 4 in ALT, Least Squares Means GS-9450 (T) ([5]; 40 mg): −42%
- nonresponders at week 4 (decrease in ALT of <10% relative to baseline) ([5]; 40 mg, two subjects): 8%
- time after stopping study medication until ALT reduction was offset ([5]; off-treatment follow-up): ≤ 1 week
- ALT mean (SD) changes from baseline at week 4 ([5]; range across the GS-9450 groups (1-40 mg)): −14 (40) to −47 (43) U/L
- response as percent of the maximal effect achievable with GS-9450 (week 4 difference in ALT or CK-18 fragments) [6]: at least 82%
- effect on ALT levels [7]: reductions in alanine aminotransferase (ALT) levels
- frequency of treatment-emergent AEs during the 4-week on-treatment period ([8]; 1 mg): 77%
- Abdominal pain [8, 10]: 1 (4) n (%)
- Abdominal pain upper [8, 10]: 1 (4) n (%)
- Arthralgia [8, 10]: 1 (4) n (%)
- Asthenia [8, 10]: 1 (4) n (%)
